Assay results reported in patent publication US6372727B1, “Metalloporphyrin treatment of neurologic disease” (UAB Research Foundation, priority 1999, dated 2002).

Tests used:
[1] = tested on: ALS-SOD1 (G93A) transgenic mice; conditions: cited from earlier work
[2] = Peroxynitrite-mediated nitration of GYA peptide; assay type: biochemical; conditions: 2 mM GYA, 10 μM MP or SOD subunit, 1 mM CO2, pH 7.4, 37° C.
Method: Nitration efficiency, defined as the moles of nitrated GYA peptide formed per mole of peroxynitrite added, was determined at a fixed concentration of 10 μM MP or Cu,Zn SOD subunit, or 1 mM CO2 as described below. Increasing amounts of peroxynitrite were added in a sequential manner in order to determine whether nitration efficiency varied with concentration and to determine whether nitration catalysis was maintained with multiple additions (see INSET). Nitration efficiency was calculated for each peroxynitrite addition; the values shown are the average of all nine peroxynitrite additions. Absorbance changes were monitored simultaneously at 380, 430, and 460 nm.
For nitration of GYA peptide (see FIG. 6), reaction solutions contained 2 mM GYA and 10 μM of the indicated MP in 1.4 ml of 0.1 M potassium phosphate, pH 7.4 at 37° C. Comparisons with two previously characterized nitration catalysts, human Cu,Zn superoxide dismutase (hCu,Zn SOD) and carbon dioxide, were made using 10 μM of SOD subunit and 25 mM potassium bicarbonate, respectively, which was pH-adjusted to 7.4. This level of bicarbonate results in rapid saturation of the solution with carbon dioxide (˜1 mM). Solutions were placed into a rapidly stirred cuvette and nine bolus additions (50 μM×3, 100 μM×3, and 200 μM×3) of peroxynitrite were made sequentially while the absorbance was monitored. Increasing amounts of peroxynitrite were added in a sequential manner in order to determine whether nitration efficiency varied with concentration and to determine whether nitration catalysis was maintained with multiple additions (see FIG. 6 inset). Nitration efficiency was defined as the amount of nitropeptide formed per amount of peroxynitrite added and was calculated for each peroxynitrite addition; the values shown are the average of all nine peroxynitrite additions. The absorbance changes associated with nitrotyrosine peptide production were monitored simultaneously at 380, 430, and 460 nm. The extinction coefficients for nitrated GYA at pH 7.4 are 4,400 M^−1cm^−1 at 430 nm and 2,200 M^−1cm^−1 at both 380 and 460 nm. […] Wavelengths used to quantify nitrotyrosine production were chosen to minimize interference by the particular metalloporphyrin used. Experiments using HPA as a nitration target (FIG. 7) contained 8 mM HPA in either 0.1 M potassium phosphate, pH 7.4 or 0.1 M sodium borate, pH 9.1.
The relative abilities of several MPs to enhance nitration of the tripeptide GYA was compared using 10 μM MP and sequential bolus additions of 50 μM (×3), 100 μM (×3), and 200 μM (×3)peroxynitrite (FIG. 6, inset).

[3] = references (43), (5); cited from earlier work
bovine serum albumin = conditions: reference (35); cited from earlier work

Compound: Nc1nc2ccc(OC(F)(F)F)cc2s1 [Rilutek, riluzole]
- extension of lifespan [1]: about 7 days

Compound: Cu,Zn superoxide dismutase: human Cu,Zn superoxide dismutase, previously characterized endogenous nitration catalyst
- enhancement of nitration yield [2]: 2 fold
- rate of reaction with superoxide [3]: 2e+09 M⁻¹ s⁻¹

Compound: iron(III)-tetra-(2,4,6,-trimethyl-3-,3-disulfonatophenyl)-porphyrin [FeTMPS]
- nitration of tyrosine residues in bovine serum albumin (bovine serum albumin): inhibited
